Source: article PMC7567097, “A nanoluciferase SARS-CoV-2 for rapid neutralization testing and screening of anti-infective drugs for COVID-19” (Nature Communications, 2020)
Like-named read-outs stand apart in the source and are kept apart here.

Legend:
[1] = in vitro; conditions: human
[2] = test system: SARS-CoV-2-Nluc; test: microbe, parasite or virus in culture; format: cell-based
[3] = data from literature; ref [51]-[68]; cited from earlier work
[4] = test system: A549-hACE2 cells
[5] = human exposures in the clinic, approved dosing schedules; ref [51]-[68]; cited from earlier work
[6] = Severe acute respiratory syndrome coronavirus 2, 48 h
[7] = Severe acute respiratory syndrome coronavirus 2, read-out: EC50 (µM) Replicate 1
[8] = Severe acute respiratory syndrome coronavirus 2, read-out: EC50 (µM) Replicate 2
[9] = read-out: EC50 (µM) Replicate 1
[10] = read-out: EC50 (µM) Replicate 2

| Compound | CC50 ([1]; CC50) [µM] | CC50 ([1]; CC50 (µM) Replicate 1) [µM] | CC50 ([1]; CC50 (µM) Replicate 2) [µM] | EC50 [2, 6] [µM] | EC50 [2, 7] [µM] | EC50 [2, 8] [µM] | Plasma protein binding [3] [%] | CC50 [4] [µM] | EC50 [2, 9] [µM] | EC50 [2, 10] [µM] | EC50 [2] [µM] | Selectivity index (SI) = CC50/EC50 [2] | EC50 ([2]; read-out: EC50) [µM] | Exposure Cmin [5] [nM] |
| --- | --- | --- | --- | --- | --- | --- | --- | --- | --- | --- | --- | --- | --- | --- |
| Nc1ccn([C@@H]2O[C@@](CO)(CCl)[C@@H](O)[C@H]2F)c(=O)n1 [ALS-8112] | > 50 | > 50 | > 50 | > 10 | > 10 | > 10 | – | – | – | – | – | – | – | – |
| CC(C)CN(C[C@@H](O)[C@H](Cc1ccccc1)NC(=O)O[C@H]1CCOC1)S(=O)(=O)c1ccc(N)cc1 [Amprenavir] | > 50 | > 50 | > 50 | > 10 | > 10 | > 10 | 90 | – | – | – | – | – | – | – |
| COC(=O)N[C@H](C(=O)N[C@@H](Cc1ccccc1)[C@@H](O)CN(Cc1ccc(-c2ccccn2)cc1)NC(=O)[C@@H](NC(=O)OC)C(C)(C)C)C(C)(C)C [Atazanavir] | > 50 | > 50 | > 50 | > 10 | > 10 | > 10 | – | – | – | – | – | – | – | – |
| O=C1c2c(O)c(=O)ccn2N([C@@H]2c3ccccc3SCc3c2ccc(F)c3F)[C@@H]2COCCN12 [Baloxavir] | 47 ± 1.3 | 46 | 47.9 | > 10 | > 10 | > 10 | – | – | – | – | – | – | – | – |
| O=C(NCc1c(F)cc(F)cc1F)c1cn2c(c(O)c1=O)C(=O)N1[C@H]3CC[C@H](C3)O[C@@H]1C2 [Bictegravirt] | – | – | – | – | – | – | – | > 50 | > 10 | > 10 | – | – | – | – |
| Nc1ccn(C[C@@H](CO)OCP(=O)(O)O)c(=O)n1 [Cidofovir] | > 50 | > 50 | > 50 | > 10 | > 10 | > 10 | – | – | – | – | – | – | – | – |
| CC(C)c1nc(CN(C)C(=O)N[C@@H](CCN2CCOCC2)C(=O)N[C@H](CC[C@H](Cc2ccccc2)NC(=O)OCc2cncs2)Cc2ccccc2)cs1 [Cobicistat] | 47.3 ± 2.5 | 45.6 | 49.1 | 2.7 | 2.6 | 2.88 | – | – | – | – | 2.74 ± 0.2 | 17.3 | – | – |
| CC(C)CN(C[C@@H](O)[C@H](Cc1ccccc1)NC(=O)O[C@H]1CO[C@H]2OCC[C@H]21)S(=O)(=O)c1ccc(N)cc1 [Darunavir] | > 50 | > 50 | > 50 | > 10 | > 10 | > 10 | – | – | – | – | – | – | – | – |
| C=C1[C@H](CO)[C@@H](O)C[C@@H]1n1cnc2c(=O)[nH]c(N)nc21 [Entecavir] | > 50 | > 50 | > 50 | > 10 | > 10 | > 10 | – | – | – | – | – | – | – | – |
| NC(=O)c1nc(F)c[nH]c1=O [Favipiravir (T-705), Favipiravir] | > 50 | > 50 | > 50 | > 10 | > 10 | > 10 | – | – | – | – | – | – | – | – |
| CC(C)OC(=O)[C@H](C)N[P@](=O)(OC[C@H]1O[C@@](C#N)(c2ccc3c(N)ncnn23)[C@](C)(O)[C@@H]1OC(=O)C(C)C)Oc1ccccc1 [GS-6620] | > 50 | > 50 | > 50 | > 10 | > 10 | > 10 | – | – | – | – | – | – | – | – |
| COc1ccc2c(O[C@@H]3C[C@H]4C(=O)N[C@]5(P(=O)(O)Cc6c(F)cccc6F)C[C@H]5CCCCCCC[C@H](NC(=O)OC5CCCC5)C(=O)N4C3)cc(-c3csc(NC(C)C)n3)nc2c1Cl [GS-9256] | 31.8 ± 10.9 | 39.5 | 24.1 | > 10 | > 10 | > 10 | – | – | – | – | – | – | – | – |
| CC[C@@H]1C[C@]1(NC(=O)[C@@H]1C[C@@H](Oc2cc(-c3csc(NC(C)C)n3)nc3c(Cl)c(OCCN4CCOCC4)ccc23)CN1C(=O)[C@@H](NC(=O)O[C@@H]1C[C@@H]2C[C@@H]2C1)C(C)(C)C)C(=O)O [GS-9451] | > 50 | > 50 | > 50 | > 10 | > 10 | > 10 | – | – | – | – | – | – | – | – |
| N#C[C@@]1(c2ccc3c(N)ncnn23)O[C@H](CO)[C@@H](O)[C@H]1O [GS-441524] | > 50 | > 50 | > 50 | 0.869 ± 0.289 | 1.07 | 0.665 | – | – | – | – | – | – | – | – |
| C=CC(=O)N1CCC[C@@H](n2nc(-c3ccc(Oc4ccccc4)cc3)c3c(N)ncnc32)C1 [Ibrutinib] | > 50 | – | – | > 10 | – | – | – | – | – | – | – | – | – | – |
| C=CC(=O)N1CCC[C@@H](n2nc(-c3ccc(Oc4ccccc4)cc3)c3c(N)ncnc32)C1 [Ibrutinibj] | – | – | – | – | – | – | – | > 50 | > 10 | > 10 | – | – | – | – |
| CC(C)(C)NC(=O)[C@@H]1CN(Cc2cccnc2)CCN1C[C@@H](O)C[C@@H](Cc1ccccc1)C(=O)N[C@H]1c2ccccc2C[C@H]1O [Indinavir] | > 50 | > 50 | > 50 | > 10 | > 10 | > 10 | – | – | – | – | – | – | – | – |
| COC(=O)N[C@H](C(=O)N1CC2(CC2)C[C@H]1c1ncc(-c2ccc3c(c2)C(F)(F)c2cc(-c4ccc5nc([C@@H]6[C@H]7CC[C@H](C7)N6C(=O)[C@@H](NC(=O)OC)C(C)C)[nH]c5c4)ccc2-3)[nH]1)C(C)C [Ledapisvir] | > 50 | > 50 | > 50 | > 10 | > 10 | > 10 | – | – | – | – | – | – | – | – |

| Compound | CC50 ([1]; CC50) [µM] | CC50 ([1]; CC50 (µM) Replicate 1) [µM] | CC50 ([1]; CC50 (µM) Replicate 2) [µM] | EC50 [2, 6] [µM] | EC50 [2, 7] [µM] | EC50 [2, 8] [µM] | Plasma protein binding [3] [%] | CC50 [4] [µM] | EC50 [2, 9] [µM] | EC50 [2, 10] [µM] | EC50 [2] [µM] | Selectivity index (SI) = CC50/EC50 [2] | EC50 ([2]; read-out: EC50) [µM] | Exposure Cmin [5] [nM] |
| --- | --- | --- | --- | --- | --- | --- | --- | --- | --- | --- | --- | --- | --- | --- |
| C[C@@]1(O)[C@H](O)[C@@H](CO)O[C@H]1n1ccc2c(N)ncnc21 [MK-0608] | – | – | – | – | – | – | – | > 50 | > 10 | > 10 | – | – | > 10 | – |
| O=C(Nc1ccc([N+](=O)[O-])cc1Cl)c1cc(Cl)ccc1O [Niclosamide] | 1.28 ± 0.23 | 1.44 | 1.12 | 0.715 ± 0.332 | 0.95 | 0.48 | – | – | – | – | – | 1.8 | – | – |
| CC(C)[C@@]1(C(=O)N[C@H]2CC(=O)O[C@]2(O)CF)CC(c2nccc3ccccc23)=NO1 [Nivocasan (GS-9450), Nivocasan] | – | – | – | – | – | – | – | > 50 | > 10 | > 10 | – | – | > 10 | – |
| CCC(CC)O[C@@H]1C=C(C(=O)O)C[C@H](N)[C@H]1NC(C)=O [Oseltamivir carboxylate] | > 50 | > 50 | > 50 | > 10 | > 10 | > 10 | – | – | – | – | – | – | – | – |
| CCOc1nc(N)nc2c1ncn2[C@@H]1O[C@@H]2COP(=O)(OC(C)C)O[C@H]2[C@@]1(C)F (some centres unmarked) [PSI-352938] | > 50 | > 50 | > 50 | > 10 | > 10 | > 10 | – | – | – | – | – | – | – | – |
| Cc1cn2nc([C@@H]3CCCCN3C(=O)c3cc(Cl)ccc3NS(C)(=O)=O)cc2nc1N1CC[C@H](N)C1 [Presatovir] | – | – | – | 2.53 ± 0.69 | 3.01 | 2.04 | – | – | – | – | – | – | – | – |
| CC1=CC[C@H](C(=O)N(c2cc(C#CC(C)(C)C)sc2C(=O)O)[C@H]2CC[C@](O)(CO[C@H]3CCOC3)CC2)CC1 [Radalbuvir] | > 50 | > 50 | > 50 | > 10 | > 10 | > 10 | – | – | – | – | – | – | – | – |
| NC(=O)c1ncn([C@@H]2O[C@H](CO)[C@@H](O)[C@H]2O)n1 [Ribavirin] | > 50 | > 50 | > 50 | > 10 | > 10 | > 10 | – | – | – | – | – | – | – | – |
| CC(C)c1nc(CN(C)C(=O)N[C@H](C(=O)N[C@@H](Cc2ccccc2)C[C@H](O)[C@H](Cc2ccccc2)NC(=O)OCc2cncs2)C(C)C)cs1 [Ritonavir] | – | – | – | > 10 | > 10 | > 10 | – | – | – | – | – | – | – | – |
| CCOC(=O)[C@H](C)N[P@](=O)(CO[C@@H]1C=C(F)[C@H](n2cnc3c(N)ncnc32)O1)Oc1ccccc1 [Rovafovir (GS-9131), Rovafovir] | – | – | – | – | – | – | – | – | > 10 | > 10 | – | – | > 10 | – |
| CCOC(=O)/C=C/[C@H](C[C@@H]1CCNC1=O)NC(=O)[C@@H](CC(=O)[C@@H](NC(=O)c1cc(C)on1)C(C)C)Cc1ccc(F)cc1 [Rupintrivir] | > 50 | > 50 | > 50 | 1.87 ± 0.47 | 1.53 | 2.2 | – | – | – | – | – | >26.7 | – | – |
| CC(C)(C)NC(=O)[C@@H]1C[C@@H]2CCCC[C@@H]2CN1C[C@@H](O)[C@H](Cc1ccccc1)NC(=O)[C@H](CC(N)=O)NC(=O)c1ccc2ccccc2n1 [Saquinavir] | 35.1 ± 11.7 | 43.4 | 26.8 | 8.95 ± 0.31 | 8.73 | 9.17 | – | – | – | – | – | 3.9 | – | 650 |
| CC(C)OC(=O)[C@H](C)N[P@](=O)(OC[C@H]1O[C@@H](n2ccc(=O)[nH]c2=O)[C@](C)(F)[C@@H]1O)Oc1ccccc1 [Sofosbuvir] | > 50 | > 50 | > 50 | > 10 | > 10 | > 10 | – | – | – | – | – | – | – | – |
| Fc1ccccc1-c1nc2ccn(Cc3ccc(-c4ccc(C(F)(F)F)cc4C(F)(F)F)nn3)cc-2n1 [Tegobuvir] | 17.9 ± 3.1 | 20 | 15.7 | > 10 | > 10 | > 10 | – | – | – | – | – | – | – | – |
| CC#CC(=O)N1CC[C@@H](n2c(=O)n(-c3ccc(Oc4ccccc4)cc3)c3c(N)ncnc32)C1 [Tirabrutinib] | > 50 | > 50 | > 50 | > 10 | > 10 | > 10 | – | – | – | – | – | – | – | – |
| COC[C@H]1C[C@@H](c2ncc(-c3ccc4c(c3)COc3cc5c(ccc6nc([C@@H]7CC[C@H](C)N7C(=O)[C@@H](NC(=O)OC)C(C)C)[nH]c65)cc3-4)[nH]2)N(C(=O)[C@H](NC(=O)OC)c2ccccc2)C1 [Velpatasvir] | > 50 | > 50 | > 50 | > 10 | > 10 | > 10 | – | – | – | – | – | – | – | – |
| Voxilaprevir | – | – | – | – | – | – | – | – | > 10 | > 10 | – | – | > 10 | – |
